Reference: the NIST ThermoML archive (doi:10.1021/je020195l)

Columns and labels:
[1] = activity coefficient (dimensionless); of the first substance listed, at infinite dilution; xn = mol fraction of the nth substance listed; conditions: 101 kPa, Liquid, x1 = 0
[2] = excess molar enthalpy (molar enthalpy of mixing); xn = mol fraction of the nth substance listed; conditions: Liquid, Flow calorimetry

c1ccccc1 [benzene] + CCOC(C)OCC
[1]
Conditions | activity coefficient
293.21 K | 0.64
303.16 K | 0.58
313.11 K | 0.56
323.13 K | 0.62

CCC(C)(OC)OC [2,2-dimethoxybutane] + C1CCCCC1
[2], 303.15 K, 1204 kPa
Conditions | excess molar enthalpy [kcal/mol]
x2 = 0.0623 | 0.0257
x2 = 0.1229 | 0.0471
x2 = 0.1821 | 0.0671
x2 = 0.2397 | 0.0844
x2 = 0.296 | 0.0985
x2 = 0.3509 | 0.11
x2 = 0.4045 | 0.119
x2 = 0.4568 | 0.125
x2 = 0.5079 | 0.128
x2 = 0.5578 | 0.129
x2 = 0.6066 | 0.128
x2 = 0.6542 | 0.123
x2 = 0.7008 | 0.116
x2 = 0.7464 | 0.107
x2 = 0.791 | 0.0956
x2 = 0.8346 | 0.0821
x2 = 0.8773 | 0.0657
x2 = 0.919 | 0.0468
x2 = 0.9599 | 0.0259

CCOC(C)OCC [1,1-diethoxyethane] + C1CCCCC1
[2], 323.15 K, 1308 kPa
Conditions | excess molar enthalpy [kcal/mol]
x2 = 0.0648 | 0.0271
x2 = 0.1277 | 0.0506
x2 = 0.1887 | 0.0712
x2 = 0.2478 | 0.0882
x2 = 0.3052 | 0.103
x2 = 0.3609 | 0.114
x2 = 0.415 | 0.123
x2 = 0.4676 | 0.129
x2 = 0.5188 | 0.132
x2 = 0.5685 | 0.133
x2 = 0.6169 | 0.13
x2 = 0.664 | 0.126
x2 = 0.7099 | 0.12
x2 = 0.7546 | 0.111
x2 = 0.7981 | 0.0986
x2 = 0.8405 | 0.0849
x2 = 0.8819 | 0.0681
x2 = 0.9222 | 0.0481
x2 = 0.9616 | 0.0261

CCC(C)(OC)OC [2,2-dimethoxybutane] + c1ccccc1
[2], 303.15 K, 1342 kPa
Conditions | excess molar enthalpy [kcal/mol]
x2 = 0.0747 | 0.00416
x2 = 0.1456 | 0.00676
x2 = 0.213 | 0.00906
x2 = 0.2772 | 0.0109
x2 = 0.3383 | 0.0128
x2 = 0.3966 | 0.0141
x2 = 0.4523 | 0.0151
x2 = 0.5056 | 0.0159
x2 = 0.5565 | 0.0165
x2 = 0.6053 | 0.0167
x2 = 0.6521 | 0.0165
x2 = 0.697 | 0.0162
x2 = 0.7402 | 0.0155
x2 = 0.7816 | 0.0145
x2 = 0.8215 | 0.0131
x2 = 0.8599 | 0.0112
x2 = 0.8968 | 0.00927
x2 = 0.9325 | 0.00651

C1CCCCC1 [cyclohexane] + CCOC(C)OCC
[1]
Conditions | activity coefficient
293.08 K | 1.76
303.18 K | 1.72
313.12 K | 1.67
323.14 K | 1.64

CCOC(C)OCC [1,1-diethoxyethane] + c1ccccc1
[2], 323.15 K, 1308 kPa
Conditions | excess molar enthalpy [kcal/mol]
x2 = 0.0778 | -0.00197
x2 = 0.1511 | -0.00364
x2 = 0.2204 | -0.00483
x2 = 0.286 | -0.0057
x2 = 0.3481 | -0.00617
x2 = 0.4071 | -0.0064
x2 = 0.4631 | -0.0064
x2 = 0.5165 | -0.00619
x2 = 0.5672 | -0.00577
x2 = 0.6157 | -0.00527
x2 = 0.6619 | -0.0045
x2 = 0.7061 | -0.00365
x2 = 0.7484 | -0.00277
x2 = 0.7889 | -0.00181
x2 = 0.8278 | -0.000703
x2 = 0.865 | 7.17e-06
x2 = 0.9008 | 0.000676
x2 = 0.9351 | 0.00116
x2 = 0.9682 | 0.00114
